These results are taken from patent publication EP4603105A1, “PHARMACEUTICAL COMPOSITION CONTAINING CYCLIC COMPOUND HAVING SELECTIVE KRAS INHIBITORY EFFECT AGAINST HRAS AND NRAS” (CHUGAI SEIYAKU KABUSHIKI KAISHA, priority 2022, dated 2024).

Assay [1] addresses GDP-bound KRAS wild-type protein (Homo sapiens, UniProt P01116). Briefly: Binding to KRAS by surface plasmon resonance (SPR), dissociation constant KD. Conditions: Single Cycle Kinetics. The method in brief:
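Running buffer contained 10 µM GDP and 10 mM MgCl2 to keep RAS in the GDP state, with 4% DMSO at pH 7.4. Compounds were flowed at 100 µL/min in 75 s steps of rising concentration over captured biotin-Avi RAS at 30°C. Sensorgrams were fitted 1:1 for KD.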

The target of assay [2] is GDP-bound NRAS wild-type protein (Homo sapiens, UniProt P01111). Description: Binding to NRAS by surface plasmon resonance (SPR), KD and KD ratio to KRAS. Particulars: ratio of KD for GDP-bound NRAS wild-type protein to KD for KRAS. The method in brief: (§1)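 SPR, 30°C: Avi-biotin RAS·GDP captured via Biotin CAPture (~100–300 RU); running buffer HBS pH 7.4, 1 mM DTT, 10 mM MgCl2, 0.01% Tween 20, 10 µM GDP, 4% DMSO. Single-cycle kinetics, 100 µL/min, 75 s injections; 1:1 model → KD.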

For assay [3], the target named is HRAS wild-type protein (Homo sapiens, UniProt P01112). Briefly: Binding to HRAS by surface plasmon resonance (SPR), KD and KD ratio to KRAS. Conditions: ratio of KD for HRAS wild-type protein to KD for KRAS. The method in brief:
as §1

The subject of assay [4] is human lung cancer strain NCI-H441. Briefly: NCI-H441 cell proliferation inhibitory activity (CellTiter-Glo, 4 days). The class given is cell-based. Particulars: NCI-H441 cells, 4 days, read-out: NCl-H441 IC50. The method in brief:
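Proliferation was scored by […] measured after the reagent was added to cultures kept at 37°C in 5% carbon dioxide.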
A general note: ATP-based viability assays read luminescence as a measure of living cells.

GDP-bound NRAS wild-type protein, sequence (P01111 whole entry): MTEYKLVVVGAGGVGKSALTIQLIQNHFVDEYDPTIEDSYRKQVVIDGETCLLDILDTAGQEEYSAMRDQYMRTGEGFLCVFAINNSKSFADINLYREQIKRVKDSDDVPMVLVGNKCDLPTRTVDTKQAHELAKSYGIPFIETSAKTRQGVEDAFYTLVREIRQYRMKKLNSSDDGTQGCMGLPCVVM
GDP-bound KRAS wild-type protein, sequence (P01116 1-188 isoform P01116-2): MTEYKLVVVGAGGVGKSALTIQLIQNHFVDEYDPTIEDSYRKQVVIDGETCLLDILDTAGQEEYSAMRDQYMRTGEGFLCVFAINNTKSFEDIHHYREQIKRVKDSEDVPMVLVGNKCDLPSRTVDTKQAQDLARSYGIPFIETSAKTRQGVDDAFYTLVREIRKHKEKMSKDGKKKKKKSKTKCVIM
HRAS wild-type protein, sequence (P01112 whole entry): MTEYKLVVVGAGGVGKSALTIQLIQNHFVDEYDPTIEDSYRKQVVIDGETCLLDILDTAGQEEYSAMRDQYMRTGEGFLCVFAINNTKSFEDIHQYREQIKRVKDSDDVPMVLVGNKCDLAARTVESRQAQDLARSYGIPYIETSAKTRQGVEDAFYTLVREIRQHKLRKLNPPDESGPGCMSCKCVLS

On to `CCO[C@@H]1C[C@H]2C(=O)OC3(CCC3)C(=O)N(C)[C@@H](C3CCCC3)C(=O)N(C)[C@H](C(=O)N(C)C)CC(=O)N(C)[C@@H]([C@H](C)OC)C(=O)N[C@@H]([C@@H](C)CC)C(=O)N(C3CC3)CC(=O)N(C)[C@H]3C/C=C\CCN(C3=O)[C@@H](Cc3ccc(C)cc3)C(=O)N(C)CC(=O)N[C@@H](CCc3ccc(C(F)(F)F)c(OC)c3)C(=O)N2C1` [PP3396], for which binding in assay [1] was characterised by a dissociation constant (Kd) of 1.4 nM. In addition, the “NRAS /KRAS” value in assay [2] is “A (a compound having 10 or more and less than 20 is denoted as A)”. The “HRAS /KRAS” value in assay [3] was “B (a compound having 3 or more and less than 10 is denoted as B)”. Moreover, the IC50 (usually the point on the concentration scale where inhibition reaches its midpoint) in assay [4] turned out to be 12.9 nM.

For `CCO[C@@H]1C[C@H]2C(=O)OC3(CCC3)C(=O)N(C)[C@@H](C3CCCC3)C(=O)N(C)[C@H](C(=O)N(C)C)CC(=O)N(C)[C@@H]([C@H](C)OC)C(=O)N[C@@H]([C@@H](C)CC)C(=O)N(C)CC(=O)N(C)[C@H]3C/C=C\CCN(C3=O)[C@@H](Cc3ccc(C)cc3)C(=O)N(C)CC(=O)N[C@@H](CCc3ccc(C(F)(F)F)c(OC)c3)C(=O)N2C1` [PP3397], binding in assay [1] was put at a Kd of 0.28 nM. The “NRAS /KRAS” value in assay [2] was “A (a compound having 10 or more and less than 20 is denoted as A)”. Moreover, the “HRAS /KRAS” value in assay [3] was “B (a compound having 3 or more and less than 10 is denoted as B)”. Further, the IC50 in assay [4] worked out at 4.3 nM.

As to `CCCO[C@@H]1C[C@H]2C(=O)NC3(CC(C)(C)C3)C(=O)N(C)[C@@H](C3CCCC3)C(=O)N(C)[C@H](C(=O)N(C)CC)CC(=O)N(C)[C@@H](COCC)C(=O)N[C@@H]([C@@H](C)CC)C(=O)N3C[C@@H](F)C[C@H]3C(=O)N(C)[C@H]3C/C=C\CCN(C3=O)[C@@H](Cc3ccc(C(F)(F)F)cc3)C(=O)N(C)CC(=O)N[C@@H](CCc3cc(F)c(C(F)(F)F)c(F)c3)C(=O)N2C1` [PP3401], the Kd (usually the concentration at which binding is half-saturated) in assay [1] turned out to be 0.32 nM. The “NRAS /KRAS” value in assay [2] is “A (a compound having 10 or more and less than 20 is denoted as A)”. The “HRAS /KRAS” value in assay [3] is “A (a compound having 10 or more and less than 20 is denoted as A)”. For the same compound, the half-maximal inhibitory concentration (IC50) in assay [4] turned out to be 10.9 nM.

Compound `CCC[C@H]1C(=O)N[C@@H]([C@@H](C)CC)C(=O)N(C)CC(=O)N(C)[C@H]2C/C=C\CCN(C2=O)[C@@H](Cc2ccc(C(F)(F)F)cc2)C(=O)N(C)CC(=O)N[C@@H](CCc2cc(F)c(C(F)(F)F)c(F)c2)C(=O)N2CC3(CC3)C[C@H]2C(=O)NC2(CCC2)C(=O)N(C)[C@@H](C(CC)CC)C(=O)N(C)[C@H](C(=O)N(C)C)CC(=O)N1C` [PP3402] displayed a Kd in assay [1] of 0.31 nM. The “NRAS /KRAS” value in assay [2] is given as “AA (a compound having 20 or more is denoted as AA)”. In assay [3], the “HRAS /KRAS” value is “B (a compound having 3 or more and less than 10 is denoted as B)”. The IC50 in assay [4] came to 10.1 nM.

With `CCCO[C@@H]1C[C@H]2C(=O)NC3(CC(C)(C)C3)C(=O)N(C)[C@@H](C3CCCC3)C(=O)N(C)[C@H](C(=O)N(C)CC)CC(=O)N(C)[C@@H](COCC)C(=O)N[C@@H]([C@@H](C)CC)C(=O)N(C3CC3)CC(=O)N(C)[C@H]3C/C=C\CCN(C3=O)[C@@H](Cc3ccc(C(F)(F)F)cc3)C(=O)N(C)CC(=O)N[C@@H](CCc3ccc(C(F)(F)F)c(Cl)c3)C(=O)N2C1` [PP3403], in assay [1], the affinity, expressed as Kd, was 0.81 nM. The “NRAS /KRAS” value in assay [2] was “A (a compound having 10 or more and less than 20 is denoted as A)”. In addition, the “HRAS /KRAS” value in assay [3] is “A (a compound having 10 or more and less than 20 is denoted as A)”. Also, the IC50 in assay [4] worked out at 15.2 nM.

The compound `CCC[C@H]1C(=O)N[C@@H]([C@@H](C)CC)C(=O)N(C)CC(=O)N(C)[C@H]2C/C=C\CCN(C2=O)[C@@H](Cc2ccc(C(F)(F)F)cc2)C(=O)N(C)CC(=O)N[C@@H](CCc2cc(F)c(C(F)(F)F)c(F)c2)C(=O)N2CC3(CC3)C[C@H]2C(=O)NC2(CCC2)C(=O)N(C)[C@@H]([C@@H](C)CC)C(=O)N(C)[C@H](C(=O)N(C)C)CC(=O)N1C` [PP3404] came in with a Kd in assay [1] of 0.2 nM. Besides, the “NRAS /KRAS” value in assay [2] was “AA (a compound having 20 or more is denoted as AA)”. The “HRAS /KRAS” value in assay [3] was “A (a compound having 10 or more and less than 20 is denoted as A)”. The concentration for half-maximal inhibition (IC50) in assay [4] worked out at 12.8 nM.

As for `CCCO[C@@H]1C[C@H]2C(=O)NC3(CC(C)(C)C3)C(=O)N(C)[C@@H](C3CCCC3)C(=O)N(C)[C@H](C(=O)N(C)CC)CC(=O)N(C)[C@@H](COCC)C(=O)N[C@@H]([C@@H](C)CC)C(=O)N3CCC[C@H]3C(=O)N(C)[C@H]3C/C=C\CCN(C3=O)[C@@H](Cc3ccc(C(F)(F)F)cc3)C(=O)N(C)CC(=O)N[C@@H](CCc3ccc(C(F)(F)F)c(Cl)c3)C(=O)N2C1` [PP3405], in assay [1], the Kd is 1.5 nM. Besides, the “NRAS /KRAS” value in assay [2] is “A (a compound having 10 or more and less than 20 is denoted as A)”. In assay [3], the “HRAS /KRAS” value is “A (a compound having 10 or more and less than 20 is denoted as A)”. Moreover, the IC50 in assay [4] worked out at 40.5 nM.

As for `CCC[C@H]1C(=O)N[C@@H]([C@@H](C)CC)C(=O)N(C)CC(=O)N(C)[C@H]2C/C=C\CCN(C2=O)[C@@H](Cc2ccc(C(F)(F)F)cc2)C(=O)N(C)CC(=O)N[C@@H](CCc2cc(F)c(C(F)(F)F)c(F)c2)C(=O)N2CC3(CC3)C[C@H]2C(=O)NC2(CCC2)C(=O)N(C)[C@@H](CC(C)(C)C)C(=O)N(C)[C@H](C(=O)N(C)C)CC(=O)N1C` [PP3406], binding in assay [1] was characterised by a dissociation constant (Kd) of 0.035 nM. The “NRAS /KRAS” value in assay [2] is “A (a compound having 10 or more and less than 20 is denoted as A)”. Moreover, the “HRAS /KRAS” value in assay [3] was “B (a compound having 3 or more and less than 10 is denoted as B)”. Moreover, the IC50 in assay [4] turned out to be 5.7 nM.

As for `CCCO[C@@H]1C[C@H]2C(=O)NC3(CC(C)(C)C3)C(=O)N(C)[C@@H](C3CCCC3)C(=O)N(C)[C@H](C(=O)N(C)CC)CC(=O)N(C)[C@@H](COCC)C(=O)N[C@@H]([C@@H](C)CC)C(=O)N3C[C@@H](C)C[C@H]3C(=O)N(C)[C@H]3C/C=C\CCN(C3=O)[C@@H](Cc3ccc(C(F)(F)F)cc3)C(=O)N(C)CC(=O)N[C@@H](CCc3ccc(C(F)(F)F)c(Cl)c3)C(=O)N2C1` [PP3407], in assay [1], binding was put at a Kd of 3.8 nM. Besides, the “NRAS /KRAS” value in assay [2] is “A (a compound having 10 or more and less than 20 is denoted as A)”. Also, in assay [3], the “HRAS /KRAS” value is “A (a compound having 10 or more and less than 20 is denoted as A)”. Besides, the IC50 in assay [4] worked out at 73.8 nM.

In assay [1], `CCC[C@H]1C(=O)N[C@@H]([C@@H](C)CC)C(=O)N(C)CC(=O)N(C)[C@H]2C/C=C\CCN(C2=O)[C@@H](Cc2ccc(C(F)(F)F)cc2)C(=O)N(C)CC(=O)N[C@@H](CCc2ccc(C(F)(F)F)c(OC)c2)C(=O)N2CC3(CC3)C[C@H]2C(=O)NC2(CCC2)C(=O)N(C)[C@@H](C(CC)CC)C(=O)N(C)[C@H](C(=O)N(C)C)CC(=O)N1C` [PP3408] displayed an equilibrium dissociation constant (Kd) of 0.32 nM. In addition, in assay [2], the “NRAS /KRAS” value was “AA (a compound having 20 or more is denoted as AA)”. Further, the “HRAS /KRAS” value in assay [3] is “A (a compound having 10 or more and less than 20 is denoted as A)”. Also, in assay [4], the IC50 was 12.8 nM.

`CCCO[C@@H]1C[C@H]2C(=O)NC3(CC(C)(C)C3)C(=O)N(C)[C@@H](C3CCCC3)C(=O)N(C)[C@H](C(=O)N(C)CC)CC(=O)N(C)[C@@H](COCC)C(=O)N[C@@H]([C@@H](C)CC)C(=O)N3C[C@@H](F)C[C@H]3C(=O)N(C)[C@H]3C/C=C\CCN(C3=O)[C@@H](Cc3ccc(C(F)(F)F)cc3)C(=O)N(C)CC(=O)N[C@@H](CCc3ccc(C(F)(F)F)c(Cl)c3)C(=O)N2C1` [PP3409] showed a Kd in assay [1] of 0.55 nM. Also, the “NRAS /KRAS” value in assay [2] was “A (a compound having 10 or more and less than 20 is denoted as A)”. The “HRAS /KRAS” value in assay [3] was “A (a compound having 10 or more and less than 20 is denoted as A)”. In assay [4], the IC50 was 21 nM.
